Test results published in ChEMBL document CHEMBL3639024, “Azinone-substituted azapolycycle MCH-1 antagonists, methods of making, and use thereof” (2013).

Molecular target: Melanin-concentrating hormone receptor 1 (Homo sapiens, UniProt Q99705)
Assay: Binding Assay: Evaluation of the affinity of compounds for the human MCH-1 receptor was accomplished using 4-(3,4,5-tritritiumbenzyloxy)-1-(1-(2-(pyrrolidin-1-yl)ethyl)-1H-indazol-5-yl)pyridin-2(1H)-one and membranes prepared from stable CHO-K1 cells expressing the human MCH1 receptor obtained from Euroscreen (Batch 1138).
Type: cell membranes

Sequence of Melanin-concentrating hormone receptor 1 (Q99705 whole entry): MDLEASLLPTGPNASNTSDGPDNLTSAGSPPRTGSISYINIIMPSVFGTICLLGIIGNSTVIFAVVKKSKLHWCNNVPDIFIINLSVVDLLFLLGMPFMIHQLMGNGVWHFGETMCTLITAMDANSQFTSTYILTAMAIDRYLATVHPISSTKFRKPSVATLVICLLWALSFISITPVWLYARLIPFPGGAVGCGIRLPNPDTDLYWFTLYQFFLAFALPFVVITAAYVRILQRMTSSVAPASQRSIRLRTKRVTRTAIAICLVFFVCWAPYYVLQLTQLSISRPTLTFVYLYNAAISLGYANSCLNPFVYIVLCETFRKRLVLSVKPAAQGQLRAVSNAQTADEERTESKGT

Ki: 9.7 nM
Compound: Cn1c2c(c3ccc(-n4ccc(OCc5ccc(F)cn5)cc4=O)cc31)CN1CCCC1C2 (stereo unspecified)
